Reference: the supplement of paper PMC10307832

What was measured:
Assay in all cases: relative viability (nuclei count vs DMSO), 5 days (fraction); higher = more cells survive
Adavosertib + Dasatinib = compound: C=CCn1c(=O)c2cnc(Nc3ccc(N4CCN(C)CC4)cc3)nc2n1-c1cccc(C(C)(C)O)n1 [Adavosertib] + Cc1nc(Nc2ncc(C(=O)Nc3c(C)cccc3Cl)s2)cc(N2CCN(CCO)CC2)n1 [Dasatinib] (partner 0.075 µM)
How it was run: (§1)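 For relative viability, nuclei counts in treated wells were divided by those in vehicle wells. Lung cancer cell lines had been pin-tool dosed in 1536-well plates the day after seeding and cultured for 5 days, then fixed and stained in one step (final 0.05% Triton X-100, 1% formaldehyde, 1 ug/ml Hoechst) and imaged at 4×. Doses were one drug alone or a fixed anchor-drug dose plus five library-drug doses (not always all listed) in √10 steps, and values are duplicate-plate medians.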

Nelarabine + Foretinib = compound: COc1nc(N)nc2c1ncn2[C@@H]1O[C@H](CO)[C@@H](O)[C@@H]1O [Nelarabine] + COc1cc2c(Oc3ccc(NC(=O)C4(C(=O)Nc5ccc(F)cc5)CC4)cc3F)ccnc2cc1OCCCN1CCOCC1 [Foretinib] (partner 0.25 µM)
How it was run: as §1

Nelarabine + Phenformin = compound: COc1nc(N)nc2c1ncn2[C@@H]1O[C@H](CO)[C@@H](O)[C@@H]1O [Nelarabine] + N=C(N)NC(=N)NCCc1ccccc1 [Phenformin] (partner 250 µM)
How it was run: as §1

Adavosertib + Alpelisib = compound: C=CCn1c(=O)c2cnc(Nc3ccc(N4CCN(C)CC4)cc3)nc2n1-c1cccc(C(C)(C)O)n1 [Adavosertib] + Cc1nc(NC(=O)N2CCC[C@H]2C(N)=O)sc1-c1ccnc(C(C)(C)C(F)(F)F)c1 [Alpelisib] (partner 2 µM)
How it was run: as §1

Cell Line | relative viability (Adavosertib + Dasatinib; first compound 0.01 µM) | relative viability (Adavosertib + Dasatinib; first compound 0.03162 µM) | relative viability (Adavosertib + Dasatinib; first compound 0.1 µM) | relative viability (Adavosertib + Dasatinib; first compound 0.3162 µM) | relative viability (Nelarabine + Foretinib; first compound 0.01 µM) | relative viability (Nelarabine + Foretinib; first compound 0.03162 µM) | relative viability (Nelarabine + Foretinib; first compound 0.1 µM) | relative viability (Nelarabine + Foretinib; first compound 0.3162 µM) | relative viability (Nelarabine + Foretinib; first compound 1 µM) | relative viability (Nelarabine + Phenformin; first compound 0.01 µM) | relative viability (Nelarabine + Phenformin; first compound 0.03162 µM) | relative viability (Nelarabine + Phenformin; first compound 0.1 µM) | relative viability (Nelarabine + Phenformin; first compound 0.3162 µM) | relative viability (Nelarabine + Phenformin; first compound 1 µM) | relative viability (Adavosertib + Alpelisib; first compound 0.01 µM) | relative viability (Adavosertib + Alpelisib; first compound 0.03162 µM) | relative viability (Adavosertib + Alpelisib; first compound 0.1 µM) | relative viability (Adavosertib + Alpelisib; first compound 0.3162 µM)
NCI-H647 | 0.2 | 0.21 | 0.259 | 0.107 | 1.22 | 1.02 | 1.26 | 1.26 | 1.37 | 0.641 | 0.301 | 0.631 | 0.501 | 0.427 | 1.1 | 1.1 | 1.02 | 0.508
NCI-H3122 | 0.816 | 0.849 | 0.922 | 0.893 | 1.11 | 0.771 | – | 1.05 | 0.962 | 0.381 | 0.356 | – | 0.412 | 0.358 | 0.763 | 0.656 | 0.83 | 0.84
NCI-H650 | 0.37 | 0.494 | 0.5 | 0.465 | 1.09 | 1.04 | 0.968 | 0.886 | 1.13 | 0.505 | 0.425 | 0.46 | 0.457 | 0.461 | 1.15 | 1.1 | 1.17 | 0.935
H3255 | 0.347 | 0.382 | 0.352 | 0.352 | – | 1.12 | 0.828 | 0.938 | 0.923 | – | 0.361 | 0.341 | 0.321 | 0.337 | 0.648 | 0.689 | 0.716 | 0.668
SW 1573 | 0.62 | 0.424 | 0.633 | 0.215 | 0.889 | 1.09 | 0.882 | 0.952 | 0.86 | 0.548 | 0.422 | 0.406 | 0.356 | 0.389 | 0.724 | 0.786 | 0.751 | 0.761
HCC-15 | 0.577 | 0.569 | 0.574 | 0.643 | 1.16 | 0.996 | 0.983 | 1.12 | 0.992 | 0.582 | 0.443 | 0.426 | 0.51 | 0.498 | 0.904 | 0.916 | 0.987 | 1.04
PC-3 [JPC-3] | 0.994 | 0.937 | 0.933 | 1.05 | 1.14 | 0.99 | 1.04 | 1.03 | 1.09 | 0.475 | 0.437 | 0.473 | 0.472 | 0.459 | 0.99 | 1.03 | 1.08 | 1.07
NCI-H1915 | 0.325 | 0.315 | 0.352 | 0.293 | 1.13 | 1.03 | 1.16 | 1.1 | 1.12 | 0.378 | 0.315 | 0.367 | 0.371 | 0.367 | 1.07 | 1.07 | 1.13 | 1.15
PC-14 | 0.281 | 0.236 | 0.23 | 0.057 | 1.04 | 1.11 | 1.06 | 1.02 | 0.997 | 0.645 | 0.46 | 0.67 | 0.556 | 0.447 | 0.944 | 0.883 | 0.948 | 0.493
LK-2 | 0.286 | 0.229 | 0.291 | 0.359 | 1.3 | – | 1.19 | 1.17 | 1.22 | 0.433 | – | 0.236 | 0.387 | 0.472 | 1.03 | 1.23 | 1.14 | 1.1
COR-L 105 | 0.285 | 0.308 | 0.331 | 0.246 | 0.953 | 0.991 | 1.26 | 1.08 | 0.967 | 0.497 | 0.594 | 0.473 | 0.454 | 0.458 | 1.05 | 1.12 | 0.972 | 0.798
NCI-H1563 | 0.462 | 0.432 | 0.437 | 0.466 | 0.809 | 0.967 | 0.811 | 0.955 | 0.905 | 0.707 | 0.665 | 0.63 | 0.73 | 0.665 | 0.924 | 0.943 | 0.949 | 1.12
UMC-11 | 0.489 | 0.414 | 0.517 | 0.461 | 1.23 | 0.961 | 0.963 | 1.11 | 0.972 | 0.33 | 0.325 | 0.347 | 0.294 | 0.31 | 1.03 | 1.02 | 1.18 | 1.04
NCI-H1975 | 0.383 | 0.3 | 0.268 | 0.232 | 1.01 | 0.892 | 1.14 | 0.986 | 1.07 | 0.472 | 0.389 | 0.4 | 0.399 | 0.432 | 0.736 | 0.63 | 0.546 | 0.339
LXF-289 | 0.309 | 0.22 | 0.213 | 0.243 | 1.07 | 0.922 | 0.988 | 1.07 | 0.969 | 0.532 | 0.574 | 0.526 | 0.571 | 0.524 | 1.08 | 1.01 | 1.09 | 1.07
NCI-H1993 | 0.63 | 0.503 | 0.719 | 0.618 | 0.845 | 0.712 | 0.737 | 0.831 | 0.708 | 0.527 | 0.486 | 0.448 | 0.499 | 0.503 | 0.733 | 0.65 | 0.723 | 0.68
NCI-H23 | 0.737 | 0.838 | 0.788 | 0.412 | 1.13 | 0.862 | 0.94 | 1.09 | 0.948 | 0.778 | 0.766 | 0.684 | 0.847 | 0.79 | 0.639 | 0.775 | 0.591 | 0.346
NCI-H2023 | 0.584 | 0.583 | 0.471 | 0.226 | 0.942 | 0.737 | 0.876 | 0.899 | 0.818 | 0.395 | 0.357 | 0.4 | 0.371 | 0.371 | 0.512 | 0.602 | 0.548 | 0.39
COR-L23 | 0.63 | 0.459 | 0.517 | 0.239 | 1.23 | 1.02 | 0.917 | 0.992 | 0.964 | 0.525 | 0.385 | 0.356 | 0.416 | 0.448 | 0.778 | 0.687 | 0.729 | 0.243
LCLC-97TM1 | 0.881 | 0.675 | 0.886 | 0.801 | 0.996 | 0.792 | 1.01 | 0.922 | 0.935 | 0.506 | 0.446 | 0.339 | 0.426 | 0.42 | – | 0.219 | 0.23 | 0.122
NCI-H441 | 0.5 | 0.511 | 0.575 | 0.396 | 0.98 | 0.977 | 0.918 | 0.933 | 0.943 | 0.862 | 0.93 | 0.666 | 0.898 | 0.883 | 0.807 | 0.745 | 0.764 | 0.596
NCI-H1734 | 0.53 | 0.469 | 0.464 | 0.318 | 1.01 | 0.818 | 0.83 | 0.949 | 0.846 | 0.446 | 0.388 | 0.412 | 0.366 | 0.38 | 0.728 | 0.69 | 0.707 | 0.624
NCI-H1437 | 0.404 | 0.323 | 0.375 | 0.43 | 1.4 | 1.18 | 1.23 | 1.25 | 1.15 | 0.304 | 0.309 | 0.318 | 0.302 | 0.325 | 1.01 | 1.02 | 0.897 | 0.977
NCI-H727 | 0.316 | 0.478 | 0.338 | 0.301 | 0.881 | 0.97 | 0.912 | 0.772 | 0.945 | 0.604 | 0.589 | 0.642 | 0.508 | 0.682 | 0.545 | 0.593 | 0.629 | 0.577
NCI-H1651 | 0.479 | 0.409 | 0.396 | 0.282 | 1.12 | 0.782 | 0.948 | 0.718 | 0.912 | 0.362 | 0.329 | 0.46 | 0.353 | 0.355 | 0.833 | 1.06 | 0.936 | 0.687
NCI-H838 | 0.291 | 0.326 | 0.31 | 0.285 | 1.24 | 0.937 | 1.08 | 1.08 | 1.09 | 0.701 | 0.549 | 0.608 | 0.595 | 0.628 | 1.01 | 1.01 | 0.996 | 1.08
NCI-H460 | 0.477 | 0.519 | 0.429 | 0.359 | 1.49 | 1.23 | 1.13 | 1.23 | 1.06 | 1.35 | 0.648 | 0.646 | 0.611 | 0.482 | 0.543 | 0.518 | 0.374 | 0.21
HCC-78 | 0.389 | 0.44 | 0.418 | 0.401 | 0.607 | 0.538 | – | 0.527 | 0.617 | 0.709 | 0.684 | – | 0.709 | 0.701 | 0.347 | 0.305 | 0.443 | 0.278
SK-LU-1 | 0.249 | 0.158 | 0.148 | 0.136 | 1.03 | 0.584 | 0.951 | 0.896 | 1.03 | 0.564 | 0.364 | 0.553 | 0.679 | 0.499 | 1.04 | 1.01 | 0.656 | 0.291
NCI-H2170 | 0.522 | 0.48 | 0.608 | 0.389 | 1.21 | 0.974 | 0.934 | 1.02 | 1.07 | 0.393 | 0.39 | 0.388 | 0.421 | 0.383 | 0.849 | 0.804 | 0.678 | 0.705
